In patent publication US20250134895A1, “METHODS AND COMPOSITIONS FOR TREATING ALPHA-SYNUCLEIN-MEDIATED NEURODEGENERATION” (UNIVERSITY HEALTH NETWORK, priority 2021, published 2025):

Columns and labels:
[1] = system: transgenic A30P α-synuclein C. elegans; assay: Coiler score and locomotion of C. elegans expressing A30P α-synuclein in dopaminergic neurons; format: in vivo, Caenorhabditis elegans
Description: Using high-resolution, multi-worm tracking with custom image processing, methods were developed for semi-automated and blinded scoring of circularity for a population of simultaneously recorded animals (n=10 per recording). A coiler score was determined for the population tested by first calculating the circularity value for each animal in each frame of video and then calculating the proportion of circularity values >0.6. […] The coiler phenotype is an abnormal motor behaviour previously reported for several unc C. elegans strains with mutations affecting neuronal function.
Animals were synchronized by isolating eggs using alkaline hypochlorite treatment and hatching overnight. Larvae were plated onto NGM agar plates with OP50 and grown for 4 days before recording locomotion. For individual C. elegans recordings, a single adult animal was randomly picked, washed for 1 to 2 minutes in M9 buffer, and then transferred to a fresh NGM plate without food for imaging. Video images were acquired (2 frames per second) for up to 6 minutes using a sCMOS camera (pco.edge, PCO) mounted on a stereomicroscope (Olympus MVX10 MacroView) controlled using the μManager software.^55 A total of 40 individual animals were imaged for each strain. For C. elegans population recordings, ten adult animals were randomly removed using an eyelash pick, washed for 1 minute in M9 buffer, and then transferred to a fresh NGM plate without food, with a ring of copper sulfate solution (150 mM) around the area of recording (a chemorepellent to keep the animals in the recording frame). Exploratory locomotion was recorded using a CCD camera (GX1920, Allied Vision) which was attached to a dissecting stereomicroscope (Leica M165C, 1.0× PlanApo lens). A Labview program captured video (2 frames per second) at 1936×1456 resolution. Using ImageJ, the displacement, perimeter, and area of each animal was calculated, from which a circularity value was computed using the following formula: circularity=4π(A/P^2), where A is the area of the animal's body and P is the perimeter of the animal's body (both expressed in arbitrary pixel units). […] Using MATLAB (Mathworks), various behavioural metrics including the coiler score were calculated, which is the percentage of frames with a circularity value >0.6. Speed was automatically computed from the ImageJ based WrmTrk plugin as the distance travelled by each animal (in pixels) over the amount of time that it was tracked (in seconds).56 Average speed was determined by calculating the weighted average of each tracked animal's speed within a single population of animals. On the day of the recording for dopamine or raclopride treatment, adult animals were washed for 1 minute in M9 buffer, treated in a solution containing either drug for 1 minute, and then placed onto fresh NGM plates without food, with a copper sulfate solution ring around the area of recording. […] Drug plates were prepared by adding each drug to LB medium with OP50 before spreading onto fresh NGM plates. The solvent used to dissolve each drug was used as vehicle control for the drug treatment experiments (M9 buffer for dopamine, distilled water for raclopride, DMSO for all other drugs).
After 72 hours of drug treatment, animals were randomly picked, washed, and recorded. A total of ten worms were recorded per population, and twelve populations were recorded for each of the four treatment groups. Locomotion was recorded for each population over a total of 1800 frames over three minutes. The animal's movement speed, area, and perimeter were automatically analyzed as previously described. Coiler score was calculated automatically using a ratio of the animal's area to perimeter, where a higher coiler score would represent a greater degree of α-synuclein-induced dopaminergic neuron dysfunction in vivo.

[2] = system: α-synuclein protein; assay: Immunoblot for α-synuclein protein in lysates of treated C. elegans; format: in vivo, Caenorhabditis elegans; settings: 50 μM
Text: The chaperone system is composed of chaperone proteins, such as HSP70 (heat shock protein 70), and co-chaperones. Together, these proteins are integral to maintaining cellular protein quality control by folding newly translated polypeptides into their native conformation, refolding misfolded proteins to prevent their aggregation, and targeting proteins to degradation pathways, such as the autophagy-lysosomal system or ubiquitin-proteasome system, when refolding is unsuccessful. From the above in vitro findings, it was predicted that perturbations to the chaperone system in vivo would affect coiling of the transgenic α-synuclein C. elegans. To test this prediction, we treated the animals were treated with the geldanamycin analogue, 17-(allylamino)-17-demethoxygeldanamycin (17-AAG). […]
Synchronized animals (4 or 5 days old) were lysed in 0.5X Tris-HCl buffer with 0.5% Triton X-100 at 100° C. for 5 minutes and then passed through a 23-gauge needle 10 times. […] Protein concentration was determined with a Bio-Rad Lowry protein assay (Bio-RAD, 5000116) according to the manufacturer's instructions. […] Beads were washed and samples were analysed by immunoblotting and mass spectrometry (see below). […] Signals were detected with ECL (ThermoFisher, 32132) and developed on HyBlot CL autoradiography film (DV-E3018).

[3] = system: H4 neuroglioma cells
Description: (§1) For controls in this assay, vehicle (i.e., DMSO), rapamycin, and bafilomycin A were used. Rapamycin, or sirolimus, is a small molecule that activates autophagy by inhibiting mTOR (mammalian target of rapamycin). […] To test this possibility, cells expressing α-synuclein were treated with each of the compounds and a cell permeable, resazurin-based assay was used to test for cell viability.
(§2) H4 neuroglioma cells (ATCC, HTB-148) were maintained in Dulbecco's Modified Eagle Medium plus high glucose, L-glutamine, and sodium pyruvate (ThermoFisher, 11995-065) with 10% heat-inactivated fetal bovine serum (ThermoFisher, 16140071) and 1% antibiotic-antimycotic cocktail (ThermoFisher, 15240062) at 37° C. and 5% CO2. DNA expression constructs encoding for full-length human α-synuclein fused to the N-terminal fragment of Gaussia princeps luciferase (syn-luc1), full-length human α-synuclein fused to the C-terminal fragment of Gaussia princeps luciferase (syn-luc2), and full-length Gaussia princeps luciferase were kindly provided by Dr. Pamela McLean, Mayo Clinic Jacksonville.^33 Cells were transiently co-transfected with syn-luc1 and syn-luc2 or transfected with luciferase alone using Superfect transfection reagent (Qiagen, 301305) according to the manufacturer's instructions. Twenty-four hours after transfection, cells were plated on a 96-well microplate at 60,000 cells per well. Twenty-four hours after plating, cells were treated with drugs or vehicle control. Following 24 hours of treatment, cells were washed 1 time with PBS and bioluminescence was measured using an automated CLARIOstar plate reader (Mandel, 430-0505). Cell permeable, native coelenterazine was used as the Gaussia luciferase substrate. Lyophilized coelenterazine (Nanolight, 303-500) was reconstituted in NanoFuel Solvent (Nanolight, 399-1), then diluted in PBS to 16.6 μg/mL, and dispensed per well to a final concentration of 20 μM). The bioluminescent signal generated by the luciferase enzyme was assessed at 470 nm over 5 seconds. Raw luminescence units were normalized to the DMSO vehicle control of each 96-well microplate. To assess cell viability, H4 neuroglioma cells were prepared and treated as described above and, 1 hour prior to viability analysis, cells were treated with PrestoBlue viability reagent (ThermoFisher, A13261) according to the manufacturer's instructions. Fluorescence was automatically measured using a CLARIOstar plate reader (Mandel, 430-0505) and then normalized to the fluorescence measure of the DMSO vehicle control.

[4] = system: full-length Gaussia princeps luciferase; assay: Activity of full-length Gaussia luciferase alone in H4 cells; format: cell-based; settings: Example 5, FIG. 5c
Description: as §1, §2

[5] = biological target: T1, α-synuclein oligomers (Homo sapiens, UniProt P37840); assay: Venus YFP protein-fragment complementation assay in rat primary cortical neurons; format: cell-based; settings: 72 hours; losartan 100 μM, rapamycin 50 nM, rifabutin 20 μM
Description: Specifically, adeno-associated viral vectors (AAV) were used to co-express human α-synuclein tagged with the N- or C-terminal half of Venus yellow fluorescent protein (YFP) in rat cortical neurons.
Pregnant Sprague Dawley rats (E17) were purchased from Charles River. Embryos were surgically removed, and neurons were harvested in a sterile environment. Neurons were plated on poly-D-lysine coated glass coverslips at a density of 5×10^5 cells per well in Neurobasal-A medium, (Gibco, 10888022) supplemented with B27 (2%) (Gibco, 17504044), antibiotic-antimycotic (1%) (Gibco, 15240062), and Glutamax (1%) (Gibco, 35050061). Fifty percent media changes were performed every 3 days. […] Two days post isolation, neurons were co-transduced with AAV-V1 S and AAV-SV2 or transduced with AAV-Venus alone at a MOI of 3,000. […] Concentrations were selected to avoid neuron toxicity according to previous reports.^57-61 Drug-containing media was removed, and cells were washed 1 time with ice-cold PBS before being fixed with 4% PFA (Sigma) at room temperature for 10 minutes. Levels of α-synuclein oligomers were measured by YFP fluorescence. […] YFP fluorescence intensity was analysed automatically using Imaris imaging software (Oxford Instruments). […]

[6] = biological target: T1, α-synuclein oligomers; assay: Immunoblot of crosslinked split YFP-tagged α-synuclein oligomers in rat primary cortical neuron lysates; format: cell-based; design: full-length human α-synuclein fused to the N-terminal fragment of Venus YFP (V1 S); full-length human α-synuclein fused to the C-terminal fragment of Venus YFP (SV2); host or cells: rat (Sprague Dawley, E17) primary cortical neurons, AAV co-transduction; settings: losartan 100 μM, rapamycin 50 nM, rifabutin 20 μM
Description: FIGS. 7A-7E. […] (a) Five positive hits were tested for their ability to reduce α-synuclein oligomer levels in rat primary cortical neurons measured with YFP-based protein-fragment complementation. […] Fluorescence intensity was analyzed using Imaris image analysis software by measuring the mean fluorescence intensity of α-synuclein positive neurons throughout a 3D field of view generated by z-stack image acquisition using the “surfaces” module. The value generated for each neuron was normalized to the mean fluorescence intensity of neurons treated with vehicle alone (N=3-4 replicates of n=10 fields of view for each treatment; each data point represents an individual replicate) (nested one-way ANOVA with Dunnett's post-hoc test, *p<0.05, *** p<0.001). […] Bottom: Representative fluorescent microscopy images of neurons treated with vehicle, losartan, rapamycin, or rifabutin and expressing YFP alone. Scale bars are […]. (e) Representative immunoblot to detect oligomers of split YFP-tagged α-synuclein (crosslinked) in rat primary cortical neuron lysates (actin used as a loading control).
Finally, it was examined whether these 5 compounds that had effects in our invertebrate C. elegans model reduce α-synuclein oligomers and α-synuclein-mediated dopaminergic neurodegeneration in mammalian systems.

[7] = biological target: T1, α-synuclein oligomers; assay: Gaussia luciferase protein-fragment complementation cell assay of α-synuclein oligomers in H4 neuroglioma cells; format: cell-based; design: full-length human α-synuclein fused to the N-terminal fragment of Gaussia princeps luciferase (syn-luc1); full-length human α-synuclein fused to the C-terminal fragment of Gaussia princeps luciferase (syn-luc2); expressed in transfected cells; host or cells: H4 neuroglioma cells (ATCC, HTB-148), transient co-transfection; settings: 1 μM or 10 μM, 24 hours of treatment
Description: as §1, §2
We used a bioluminescent protein-fragment complementation assay in which human H4 neuroglioma cells co-express human α-synuclein tagged with the N- or C-terminal half of Gaussia princeps luciferase (FIG. 12). Reconstitution of a complete and active luciferase molecule from the fragments occurs upon α-synuclein oligomerization, and so luminescence provides an indirect measure of α-synuclein oligomer levels. H4 neuroglioma cells were co-transfected with α-syn luciferase fragments, and constructs were plated into a 96-well plate and treated with either 1 μM or 10 μM of each of the 19 drug compounds.

decrease in fluorescence compared with vehicle alone [5] [%]	α-synuclein oligomers as detected by immunoblotting [6]	decrease in luciferase activity compared with vehicle alone [7] [%]	Compound	reduced coiling compared with vehicle control ([1]; 50 μM) [%]	α-synuclein protein levels [2]	changes in viability [3]	changes in the activity of full-length Gaussia luciferase alone [4]	reduction in coiling compared with vehicle alone (decrease) ([1]; 100 μM of drug, 3 days on drug plates) [%]
			C=CCNC1=C2C[C@@H](C)C[C@H](OC)[C@H](O)[C@@H](C)/C=C(\C)[C@H](OC(N)=O)[C@@H](OC)/C=C\C=C(/C)C(=O)NC(=CC1=O)C2=O [17-AAG, 17-(allylamino)-17-demethoxygeldanamycin]	51	lower			
33	reduction	16	CCCCc1nc(Cl)c(CO)n1Cc1ccc(-c2ccccc2-c2nnn[nH]2)cc1 [Losartan, losartan]			No statistically significant changes	No statistically significant changes	45
